Reference: ChEMBL document CHEMBL5209579, “Flow cytometry transport assay for SLC2A4 using HEK293 JumpIN TRex SLC2A4 WT-OE cells” (2022)

Biological target: T1, Solute carrier family 2, facilitated glucose transporter member 4 (Homo sapiens, UniProt P14672)
T1 sequence (P14672 whole entry): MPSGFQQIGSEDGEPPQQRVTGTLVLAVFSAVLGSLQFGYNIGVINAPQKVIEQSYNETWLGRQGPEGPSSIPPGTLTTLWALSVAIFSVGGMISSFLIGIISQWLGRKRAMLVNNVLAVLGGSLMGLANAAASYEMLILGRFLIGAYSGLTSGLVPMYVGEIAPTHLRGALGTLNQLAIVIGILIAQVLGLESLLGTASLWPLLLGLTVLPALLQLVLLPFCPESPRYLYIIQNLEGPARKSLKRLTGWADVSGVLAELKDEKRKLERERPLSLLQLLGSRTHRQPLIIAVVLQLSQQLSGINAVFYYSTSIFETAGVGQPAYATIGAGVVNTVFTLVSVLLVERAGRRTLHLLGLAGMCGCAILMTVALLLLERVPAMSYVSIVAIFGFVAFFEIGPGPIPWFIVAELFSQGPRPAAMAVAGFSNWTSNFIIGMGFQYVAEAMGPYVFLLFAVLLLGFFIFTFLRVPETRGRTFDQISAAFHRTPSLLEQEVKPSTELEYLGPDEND
Assay: Inhibition of the Glucose Transporter (GLUT4, SLC2A4) as assessed by a FRET based flow cytometry assay using a genetically-encoded biosensor for measuring free glucose (FLII12Pglu-700uDelta6) in HEK293 JumpIN TRex SLC2A4 WT-OE cells (PubChem AID: 1794828)
Assay type: functional, cell-based

Row | Structure (SMILES) | IC50 | EC50
1 | O=C(Oc1cccc(F)c1OC(=O)c1cccc(O)c1)c1cccc(O)c1 | 2.5 µM | 
2 | Cc1c(NC(=O)c2cc(C(N)=O)nc3cc(F)ccc23)c(C(F)(F)F)nn1Cc1ccc(C#N)cc1 [BAY-876] | 5.5 µM | 
3 | OC[C@H]1OC(O)[C@H](O)[C@@H](O)[C@@H]1O (stereo partly drawn) [DEXTROSE] |  | 860 µM
